Source: publication PMC3843672, “Resistance to Degradation and Cellular Distribution are Important Features for the Antitumor Activity of Gomesin” (PLoS ONE, 2013)
Where a SMILES comes first, the peptide text is derived from it. [ ]: non-standard residue; d: D form. d(pGlu) = O=C1CC[C@H](C(=O)O)N1; pGlu = O=C1CC[C@@H](C(=O)O)N1

How the values were obtained:
[1] = test system: B16 F10 mouse melanoma cell line; format: cell-based; details: 24 h
Method: B16 F10 mouse melanoma cell line was cultured in RPMI medium supplemented with 10% fetal bovine serum (FBS; Gibco, USA), 10 U/ml penicillin and 10 µg/ml streptomycin. Cells were cultured in a humidified incubator containing 2.5% CO2 at 37°C.
B16 cells were incubated in 96-well microtiter plates in RPMI medium supplemented with 10% FBS until reach the semi-confluence and then treated with different concentrations of Gm and its analogues for 24 h. To investigate the mechanisms of Gm-induced cell death, B-16 cells were also pre-incubated with 40 µM cytochalasin D (Tocris, USA); 20 µM necrostatin-1 (Tocris, USA), 10 µM Z-VAD (Tocris, USA), 5 mM MβCD (Tocris, USA), and 100 µM chloroquine (Tocris, USA) for 1 h. Cell viability was determined using the standard reduction of the tetrazolium salt 3-(4,5-dimethylthiazol-2-yl)-2,5-diphenyltetrazolium bromide (MTT). The results were expressed relative to control cell viability (100%).

B16 cells = assay: Peptide internalized into cells, biotinylated peptides, flow cytometry; format: cell-based, mouse; details: for internal presence of peptide after 24 h: 2 µM biotinylated peptides; for Max. Internal Fluorescence: biotinylated peptides used, 2 µM, B16 cells, streptavidin-Alexa 647 (FL4) after fixation and saponin permeabilization, maximum over time course, mean ± SEM, three independent experiments
Method: Cells were treated with the 2 µM biotinylated peptide. Then, the melanoma cells (5×10^5 for flow cytometry or 5×10^3 cell seeded for confocal microscopy) were labeled with streptavidin-Alexa 488 (Invitrogen, USA) for 30 min at 4°C and washed with PBS. The cells were fixed with a solution of 2% paraformaldehyde for 30 min, washed with 0.1 M glycin, and permeabilized with 0.01% saponin. Then, the cells were labeled with streptavidin-Alexa 647 (Invitrogen, USA). For flow cytometry, the cells were extracted using PBS with 5 mM EDTA previously to fixation. The quantification of label of external biotynilated peptide, and intracellular peptide were performed by flow cytometry or confocal microscopy. For flow cytometry the cells were excited using argon laser (488 nm), and diode laser (633 nm). The emission was collected in FL-1 and FL-4 channel. A total of 10,000 events were collected per sample. For confocal microscopy, nuclei were stained with DAPI. Confocal microscopy analyses were performed with a confocal laser scanning microscope equipped with a Plan-Apochromat ×63 objective under oil immersion (Zeiss, LSM780). The pinhole device was adjusted to capture fluorescence of one airy unit. The images correspond to single focal plane. Streptavidin-Alexa Fluor 488 were excited using an argon laser (λEx. = 488 nm, λEm. = 505–550 nm), streptavidin-Alexa Fluor 647 was excited using a HeNe laser (λEx. = 633 nm, λEm. = 640–710 nm) and DAPI was excited using a multiphoton laser (Coherent) (λEx. = 750 nm, λEm. = 380–460 nm). Unviable cells were excluded with propidium iodide (PI) label.
We quantified the Gm and analogues binding to the cellular membrane, and their internalization using their biotinylated counterpart. […] Unviable cells were excluded by PI label (Figure S2). External peptides labeled with streptavidin Alexa Fluor 488 were identified for the quantification of the green fluorescence (FL1 channel), and internal peptides labeled with streptavidin Alexa Fluor 647 were identified for the quantification of the deep red fluorescence (FL4 channel), after permeabilization of cellular membrane, by Flow cytometry. […] On the other hand, the peptides that present lower cytotoxicity were not retained after 24 h (Figure 3A-F). However, a direct relation between binding, peptide entrance, and cytotoxicity effect was not full observed, the entrance into cells seem to be important to the action of several AMPs. To verify the participation of the entry of peptide with cytotoxicity cholesterol level cholesterol level was reduced incubating the cells with MβCD for 1 h, which increase the membrane fluidity. As expected, the treatment of the cells with MβCD increases the entry of peptide (Figure 3G) and increases the cytotoxicity of the peptides, except the analogue [Thr^2,6,11,15]-Gm (Figure 3H).

[2] = Resistance to degradation by lysosomal enzymes (LC/ESI-MS); format: in vitro ADME; details: 37°C; for resistance to lysosomal enzyme degradation (in words): sonicated cells, pH 5 Tris buffer, different times, LC/ESI-MS (Figure 2B); for Peptide Degradation: sonicated cultured cells in pH 5 Tris buffer (lysosomal enzymes), incubation 1–14 h, starting peptide concentration 10^−4 M taken as 100%, LC/ESI-MS, mean ± SEM
Method: The cultured cells were resuspended using pH 5 Tris buffer, and then sonicated. Protein concentration was measured using the RC DC protein assay kit (Bio-Rad, CA, USA) according to the manufacturer’s instructions. The peptides were incubated with this protein solution for 1–14 h, and its stability was evaluated by reversed-phase liquid chromatography coupled with an electrospray ionization mass spectrometer (LC/ESI-MS).
Figure 2 Lysosomal enzymes participate in the cytotoxic reduction activities of the Gm analogues. (A, C and D) Cell viability was assessed by the MTT reduction test. (A) Cells were incubated with cytoskeletal inhibitor (cytochalasin D), and lysosomal inhibitor (chloroquine) for 1 h before to stimulation by Gm, and its analogues for 24 h. Chloroquine potentiated the cytotoxicity of peptides. (B) Since chloroquine was able to potentiate the cytotoxicity of the peptides, resistance to degradation of lysosomal enzymes was evaluated by LC/ESI-MS. Peptides were incubated at 37°C for different times. (C) Cells were incubated with the IC50 concentration for each peptide. Cytotoxic activities after 24 and 72 h of the peptide incubation were compared.

SMILES | IC50 [1] | internal presence of peptide after 24 h (B16 cells) | Max. Internal Fluorescence (B16 cells) | resistance to lysosomal enzyme degradation (in words) [2] | Peptide Degradation [2] | fold less potent than Gm ([1]; B16 cells, MTT, ratio of potencies)
CC(C)C[C@@H](NC(=O)[C@@H](CCCNC(=N)N)NC(=O)[C@@H](CCCNC(=N)N)NC(=O)[C@H](NC(=O)[C@H]1CCC(=O)N1)[C@H](C)O)C(=O)N[C@@H](C(=O)N[C@H](Cc1ccc(O)cc1)C(=O)N[C@H](CCCCN)C(=O)N1CCC[C@H]1C(=O)N[C@H](CCCNC(=N)N)C(=O)N[C@@H](C(=O)N[C@@H](C(=O)N[C@@H](C(=O)N[C@H](Cc1ccc(O)cc1)C(=O)N[C@@H](C(=O)N[C@H](CCCNC(=N)N)C(=O)NCC(=O)N[C@H](CCCNC(=N)N)C(N)=O)[C@H](C)O)[C@H](C)O)C(C)C)[C@H](C)O)[C@H](C)O [[D-Thr^2,6,11,15, Pro^9]-D-Gm] ([d(pGlu)][dT][dR][dR][dL][dT][dY][dK]P[dR][dT][dV][dT][dY][dT][dR]G[dR]-NH2) | 75 µM | internal presence | 2751±190 AU | little affected by lysosomal enzymes | 15±2% | 
CC(C)C[C@@H](NC(=O)[C@@H](CCCNC(=N)N)NC(=O)[C@@H](CCCNC(=N)N)NC(=O)[C@H](NC(=O)[C@H]1CCC(=O)N1)[C@H](C)O)C(=O)N[C@@H](C(=O)N[C@H](Cc1ccc(O)cc1)C(=O)N[C@H](CCCCN)C(=O)N[C@H](CCC(N)=O)C(=O)N[C@H](CCCNC(=N)N)C(=O)N[C@@H](C(=O)N[C@@H](C(=O)N[C@@H](C(=O)N[C@H](Cc1ccc(O)cc1)C(=O)N[C@@H](C(=O)N[C@H](CCCNC(=N)N)C(=O)NCC(=O)N[C@H](CCCNC(=N)N)C(N)=O)[C@H](C)O)[C@H](C)O)C(C)C)[C@H](C)O)[C@H](C)O [[D-Thr^2,6,11,15]-D-Gm] ([d(pGlu)][dT][dR][dR][dL][dT][dY][dK][dQ][dR][dT][dV][dT][dY][dT][dR]G[dR]-NH2) | 25 µM | internal presence | 602±12 AU | little affected by lysosomal enzymes | 12±2% | 3.5 fold
CC(C)C[C@H](NC(=O)[C@H](CCCNC(=N)N)NC(=O)[C@H](CCCNC(=N)N)NC(=O)[C@H](CO)NC(=O)[C@@H]1CCC(=O)N1)C(=O)N[C@@H](CO)C(=O)N[C@@H](Cc1ccc(O)cc1)C(=O)N[C@@H](CCCCN)C(=O)N[C@@H](CCC(N)=O)C(=O)N[C@@H](CCCNC(=N)N)C(=O)N[C@@H](CO)C(=O)N[C@H](C(=O)N[C@H](C(=O)N[C@@H](Cc1ccc(O)cc1)C(=O)N[C@@H](CO)C(=O)N[C@@H](CCCNC(=N)N)C(=O)NCC(=O)N[C@@H](CCCNC(=N)N)C(N)=O)[C@@H](C)O)C(C)C [[Ser^2,6,11,15]-Gm] ([pGlu]SRRLSYKQRSVTYSRGR-NH2) | > 200 µM |  | 305±65 AU | most sensitive peptides to degradation | 47±5% | 
CC(C)C[C@H](NC(=O)[C@H](CCCNC(=N)N)NC(=O)[C@H](CCCNC(=N)N)NC(=O)[C@@H](NC(=O)[C@@H]1CCC(=O)N1)[C@@H](C)O)C(=O)N[C@H](C(=O)N[C@@H](Cc1ccc(O)cc1)C(=O)N[C@@H](CCCCN)C(=O)N1CCC[C@@H]1C(=O)N[C@@H](CCCNC(=N)N)C(=O)N[C@H](C(=O)N[C@H](C(=O)N[C@H](C(=O)N[C@@H](Cc1ccc(O)cc1)C(=O)N[C@H](C(=O)N[C@@H](CCCNC(=N)N)C(=O)NCC(=O)N[C@@H](CCCNC(=N)N)C(N)=O)[C@@H](C)O)[C@@H](C)O)C(C)C)[C@@H](C)O)[C@@H](C)O [[Thr^2,6,11,15, D-Pro^9]-Gm] ([pGlu]TRRLTYK[dP]RTVTYTRGR-NH2) | 90 µM | internal presence | 1165±27 AU | stable to enzymatic degradation | 16±1% | 
CC(C)C[C@H](NC(=O)[C@H](CCCNC(=N)N)NC(=O)[C@H](CCCNC(=N)N)NC(=O)[C@@H](NC(=O)[C@@H]1CCC(=O)N1)[C@@H](C)O)C(=O)N[C@H](C(=O)N[C@@H](Cc1ccc(O)cc1)C(=O)N[C@@H](CCCCN)C(=O)N[C@@H](CCC(N)=O)C(=O)N[C@@H](CCCNC(=N)N)C(=O)N[C@H](C(=O)N[C@H](C(=O)N[C@H](C(=O)N[C@@H](Cc1ccc(O)cc1)C(=O)N[C@H](C(=O)N[C@@H](CCCNC(=N)N)C(=O)NCC(=O)N[C@@H](CCCNC(=N)N)C(N)=O)[C@@H](C)O)[C@@H](C)O)C(C)C)[C@@H](C)O)[C@@H](C)O [[Thr^2,6,11,15]-Gm] ([pGlu]TRRLTYKQRTVTYTRGR-NH2) | > 200 µM |  | 753±175 AU | most sensitive peptides to degradation | 43±4% | 
